Measured values: patent EP1801112A1, “Bicyclic pyrimidines and bicyclic 3,4-dihydropyrimidines as inhibitors of cellular proliferation” (Warner-Lambert Company LLC, priority 1998, dated 1999)
Where two headings read alike, the source gives them in different places.

Key:
cdk4/D = cdk4/D (Homo sapiens, UniProt P11802); experiment: Cyclin-Dependent Kinase 4 (cdk4) Assay; assay type: biochemical
cdk2/cyclinE = cdk2/cyclinE (Homo sapiens, UniProt P24941); experiment: Cyclin-Dependent Kinase Assay cdk2/cyclinE; assay type: biochemical
cdk2/cyclinA = cdk2/cyclinA (Homo sapiens, UniProt P24941); experiment: Cyclin-Dependent Kinase Assay cdk2/cyclinA; assay type: biochemical
cdc2/cyclinB = cdc2/cyclinB (Homo sapiens, UniProt P06493); experiment: Cyclin-Dependent Kinase Assay cdc2/cyclinB; assay type: biochemical
[1] = target: T1, PDGF-β receptor tyrosine kinase (Mus musculus, UniProt P05622); experiment: PDGF Receptor Tyrosine Kinase Assay; assay type: biochemical; conditions: glutamate-tyrosine co-polymer substrate, 50 µM ATP
T1 construct: amplify a fragment of DNA that codes for the intracellular tyrosine kinase domain; made in house; host or cells: SF9 insect cells (baculovirus); crude cell lysate used
Text: PDGF and FGF Receptor Tyrosine Kinase Assays
Full-length cDNAs for the mouse PDGF-β and human FGF-1 (flg) receptor tyrosine kinases were obtained from J. Escobedo and prepared as described in J. Biol. Chem., 1991;262:1482-1487. PCR primers were designed to amplify a fragment of DNA that codes for the intracellular tyrosine kinase domain. The fragment was inserted into a baculovirus vector, cotransfected with AcMNPV DNA, and the recombinant virus isolated. SF9 insect cells were infected with the virus to overexpress the protein, and the cell lysate was used for the assay. Assays were performed in 96-well plates (100 µL/incubation/well), and conditions were optimized to measure the incorporation of ^32P from γ^32P-ATP into a glutamate-tyrosine co-polymer substrate. Briefly, to each well was added 82.5 µL of incubation buffer containing 25 mM Hepes (pH 7.0), 150 mM NaCl, 0.1% Triton X-100, 0.2 mM PMSF, 0.2 mM Na3VO4, 10 mM MnCl2, and 750 µg/mL of Poly (4:1) glutamate-tyrosine followed by […] of inhibitor and 5 µL of enzyme lysate (7.5 µg/µL FGF-TK or 6.0 µg/µL PDGF-TK) to initiate the reaction. Following a 10 minute incubation at 25°C, […] of γ^32P-ATP (0.4 µCi plus 50 µM ATP) was added to each well, and samples were incubated for an additional 10 minutes at 25°C. The reaction was terminated by the addition of 100 µL of 30% trichloroacetic acid (TCA) containing 20 mM sodium pyrophosphate and precipitation of material onto glass fiber mats (Wallac). Filters were washed three times with 15% TCA containing 100 mM sodium pyrophosphate, and the radioactivity retained on the filters counted in a Wallac 1250 Betaplate reader. Nonspecific activity was defined as radioactivity retained on the filters following incubation of samples with buffer alone (no enzyme). Specific enzymatic activity (enzyme plus buffer) was defined as total activity minus nonspecific activity. […]

[2] = target: T2, FGF-1 (flg) receptor tyrosine kinase (Homo sapiens, UniProt P11362); experiment: FGF Receptor Tyrosine Kinase Assay; assay type: biochemical; conditions: glutamate-tyrosine co-polymer substrate, 50 µM ATP
T2 construct: amplify a fragment of DNA that codes for the intracellular tyrosine kinase domain; made in house; host or cells: SF9 insect cells (baculovirus); crude cell lysate used

c-Src = target: T3, c-Src (Homo sapiens, UniProt P12931); experiment: c-Src protein kinase assay; assay type: biochemical; conditions: poly GluTyr substrate, 5 µM ATP
T3 construct: made in house; host or cells: baculovirus infected insect cells
Protocol: The assay was carried out as follows: c-Src kinase was purified from baculovirus infected insect cell lysates using an antipeptide monoclonal antibody directed against the N-terminal amino acids (amino acids 2-17) of c-Src. The antibody, covalently linked to 0.65 µm latex beads, was added to a suspension of insect cell lysis buffer comprised of 150 mM NaCl, 50 mM Tris pH 7.5, 1 mM DTT, 1% NP-40, 2 mM EGTA, 1 mM sodium vanadate, 1 mM PMSF, 1 µg/mL each of leupeptin, pepstatin, and aprotinin. Insect cell lysate containing c-Src protein was incubated with these beads for 3 to 4 hours at 4°C with rotation. At the end of the lysate incubation, the beads were rinsed three times in lysis buffer, resuspended in lysis buffer containing 10% glycerol, and frozen. These latex beads were thawed, rinsed three times in assay buffer (40 mM Tris, pH 7.5, […]) and suspended in the same buffer. In a Millipore 96-well plate with a 0.65 µm polyvinylidine membrane bottom were added the reaction components: 10 µL c-Src beads, 10 µL of 2.5 mg/mL poly GluTyr substrate, 5 µM ATP containing 0.2 µCi labeled ^32P-ATP, 5 µL DMSO containing inhibitors or as a solvent control, and buffer to make the final volume 125 µL. The reaction was started at room temperature by addition of the ATP and quenched 10 minutes later by the addition of 125 µL of 30% TCA, 0.1 M sodium pyrophosphate for 5 minutes on ice. […] The filters were then punched, counted in a liquid scintillation counter, and the data examined for inhibitory activity in comparison to a known inhibitor such as erbstatin. […]

[3] = test system: human umbilical vein endothelial cells; experiment: Human Umbilical Vein Endothelial Cell (HUVEC) Proliferation Assay; assay type: cell-based; conditions: 96 h, four days incubation, Sulphorhodamine B staining
Protocol: The compounds of Formula I are useful for treating cell proliferative disorders concerning angiogenesis and have been evaluated in a human umbilical vein endothelial cell in vitro assay. The assay described below is used to determine the anti-proliferative effects of the invention compounds on human umbilical vein endothelial cells, and the results are shown in Table 7.
Human Umbilical Vein Endothelial Cell (HUVEC) Proliferation Assay
Ninety-six well tissue culture plates are seeded with 100 µL of cells in all wells of rows A->G with row H remaining empty as a blank. HUVEC (Clonetics, San Diego, CA) are grown in endothelial growth medium (EGM media, Clonetics), containing 2% fetal bovine serum. The cell seed density for HUVEC cells is 20,000 per mL. C6 cells (ATCC Cat. No. CCL-107) are seeded at 6000 per mL in F10 medium (nutrient mixture Hemes) supplemented with 15% horse serum, 2.5% fetal bovine serum, and 6.0 mL 200 mM Glutamine per 600 mL medium. A90 cells (Suny, Buffalo, NY) are also seeded at 6000 per mL, but they are grown in RPMI 1640 (Roswell Park Memorial Institute) plus 10% fetal bovine serum. Unless noted otherwise, tissue culture media and components are from GIBCO. The cells are allowed to incubate at 37°C, 5% CO2, and 100% relative humidity for 16-24 hours.
Invention compounds are prepared by dissolving them in DMSO at a concentration of 5 mM, followed by dilution to 50 µM in EGM media. One hundred microliters of the compounds are applied to duplicate wells in column 1 of the previously prepared cell plates. Column 1 row H receives 100 µL of EGM media. The compounds in column 1 are diluted across the plates using serial twofold dilutions.
The plates are incubated as above for an additional four days before being stained with Sulphorhodamine B. Staining is performed as follows: The media is removed from the plates, and the cells are fixed using 10% trichloroacetic acid for 30 minutes at 4°C. Following fixation, the plates are washed five times with distilled water after which 100 µL of Sulphorhodamine B is added to each well. Sulphorhodamine B is dissolved in 1% acetic acid to a concentration of .075%. Following staining, excess stain is removed from the wells, and the plates are washed four times with 1% acetic acid. The plates are allowed to air dry before the bound dye is solubilized in 100 µL of 10 mM unbuffered TRIS base. Absorbance is measured on a 96 well plate reader at […] using a reference filter wavelength of 630 nm. […] Sulphorhodamine B and TRIS are from Sigma Chemical Company. Acetic acid and trichloroacetic acid are from Mallinckrodt AR.

[4] = 25 µM ATP, retinoblastoma substrate, read-out: IC50 (µM) cdk4/D
[5] = retinoblastoma substrate, read-out: IC50 (µM) cdk2/E
[6] = retinoblastoma substrate, read-out: IC50 (µM) cdk2/A
[7] = retinoblastoma substrate, read-out: IC50 (µM) cdkl/B

T3 sequence (P12931 whole entry): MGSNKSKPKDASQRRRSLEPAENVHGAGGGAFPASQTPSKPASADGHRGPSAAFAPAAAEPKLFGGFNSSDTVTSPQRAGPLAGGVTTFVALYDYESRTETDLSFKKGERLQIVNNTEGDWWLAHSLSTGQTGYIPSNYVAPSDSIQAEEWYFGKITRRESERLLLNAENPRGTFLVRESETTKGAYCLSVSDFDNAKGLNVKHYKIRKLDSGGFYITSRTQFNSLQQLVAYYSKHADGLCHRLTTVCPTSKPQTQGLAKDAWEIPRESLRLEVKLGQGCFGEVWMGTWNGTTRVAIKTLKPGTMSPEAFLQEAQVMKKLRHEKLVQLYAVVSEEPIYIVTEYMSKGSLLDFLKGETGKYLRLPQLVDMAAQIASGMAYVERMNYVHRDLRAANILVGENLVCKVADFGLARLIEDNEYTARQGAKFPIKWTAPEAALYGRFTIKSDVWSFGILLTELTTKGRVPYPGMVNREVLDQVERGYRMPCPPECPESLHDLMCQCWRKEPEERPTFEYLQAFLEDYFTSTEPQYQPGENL
T1 sequence (P05622 599-961 limits assumed): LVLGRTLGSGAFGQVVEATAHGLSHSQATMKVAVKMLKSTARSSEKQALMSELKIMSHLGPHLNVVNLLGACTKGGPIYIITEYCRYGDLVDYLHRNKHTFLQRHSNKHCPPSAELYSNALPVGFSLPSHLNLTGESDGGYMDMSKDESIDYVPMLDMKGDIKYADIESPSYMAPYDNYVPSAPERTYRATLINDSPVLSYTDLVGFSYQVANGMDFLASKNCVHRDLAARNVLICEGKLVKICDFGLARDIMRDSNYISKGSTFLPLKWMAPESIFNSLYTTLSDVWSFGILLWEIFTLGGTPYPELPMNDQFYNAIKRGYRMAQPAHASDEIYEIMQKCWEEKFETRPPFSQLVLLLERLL
Chain of cdk4/D (P11802 whole entry): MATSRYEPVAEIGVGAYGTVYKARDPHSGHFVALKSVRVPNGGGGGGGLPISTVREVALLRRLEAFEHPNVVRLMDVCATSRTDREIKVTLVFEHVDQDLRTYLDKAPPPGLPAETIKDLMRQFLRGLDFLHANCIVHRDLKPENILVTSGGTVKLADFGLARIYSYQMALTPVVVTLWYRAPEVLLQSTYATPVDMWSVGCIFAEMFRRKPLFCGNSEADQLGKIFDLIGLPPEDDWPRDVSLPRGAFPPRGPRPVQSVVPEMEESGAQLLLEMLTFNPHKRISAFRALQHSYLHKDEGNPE
Chain of cdk4/D (P24385 whole entry, further chain): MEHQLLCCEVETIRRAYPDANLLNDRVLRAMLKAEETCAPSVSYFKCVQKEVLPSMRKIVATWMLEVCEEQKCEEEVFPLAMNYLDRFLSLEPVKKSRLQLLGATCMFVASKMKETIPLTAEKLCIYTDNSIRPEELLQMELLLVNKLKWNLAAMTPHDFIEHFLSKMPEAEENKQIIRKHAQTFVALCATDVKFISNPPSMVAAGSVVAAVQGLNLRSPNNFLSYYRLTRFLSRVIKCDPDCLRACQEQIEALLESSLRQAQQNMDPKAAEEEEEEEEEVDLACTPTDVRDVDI
Chain of cdc2/cyclinB (P06493 whole entry): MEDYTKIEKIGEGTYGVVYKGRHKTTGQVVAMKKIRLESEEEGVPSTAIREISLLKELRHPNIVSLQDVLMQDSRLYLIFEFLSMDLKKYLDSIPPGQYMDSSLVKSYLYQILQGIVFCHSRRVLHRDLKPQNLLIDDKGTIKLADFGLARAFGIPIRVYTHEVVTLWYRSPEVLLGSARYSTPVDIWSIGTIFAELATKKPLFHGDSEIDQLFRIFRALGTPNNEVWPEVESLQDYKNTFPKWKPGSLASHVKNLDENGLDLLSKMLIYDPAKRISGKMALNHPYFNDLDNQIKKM
Chain of cdc2/cyclinB (P14635 whole entry, further chain): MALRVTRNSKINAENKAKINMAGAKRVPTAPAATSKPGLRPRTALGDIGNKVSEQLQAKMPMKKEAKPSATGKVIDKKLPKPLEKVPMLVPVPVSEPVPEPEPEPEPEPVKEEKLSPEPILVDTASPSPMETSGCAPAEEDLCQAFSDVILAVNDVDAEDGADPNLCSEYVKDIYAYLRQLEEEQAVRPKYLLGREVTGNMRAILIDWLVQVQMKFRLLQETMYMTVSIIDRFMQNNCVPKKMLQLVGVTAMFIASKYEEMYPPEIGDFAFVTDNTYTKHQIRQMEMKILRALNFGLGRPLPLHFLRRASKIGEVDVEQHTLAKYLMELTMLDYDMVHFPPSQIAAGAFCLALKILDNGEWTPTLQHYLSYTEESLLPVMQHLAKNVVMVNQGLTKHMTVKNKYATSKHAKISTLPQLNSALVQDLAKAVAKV
T2 sequence (P11362 478-767 limits assumed): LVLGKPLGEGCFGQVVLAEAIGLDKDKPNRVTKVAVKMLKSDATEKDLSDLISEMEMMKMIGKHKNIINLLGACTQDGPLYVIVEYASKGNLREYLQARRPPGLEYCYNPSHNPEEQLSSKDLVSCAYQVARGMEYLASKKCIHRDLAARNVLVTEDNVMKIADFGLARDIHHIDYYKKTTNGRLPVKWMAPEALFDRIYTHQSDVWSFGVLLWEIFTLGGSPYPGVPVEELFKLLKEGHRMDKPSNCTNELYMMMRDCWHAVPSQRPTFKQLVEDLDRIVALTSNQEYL

SMILES	IC50 (cdk4/D; [4])	IC50 (cdk2/cyclinE; [5])	IC50 (cdk2/cyclinA; [6])	IC50 (cdc2/cyclinB; [7])	IC50 [1]	IC50 [2]	IC50 (c-Src)	IC50 (cdk2/cyclinE)	IC50 (cdk2/cyclinA)	IC50 (cdc2/cyclinB)	IC50 [3]	IC50 (cdk4/D)
CC(C)n1c(=O)ncc2cnc(Nc3ccc(N4CCC(N(C)C)CC4)cc3)nc21 [Example 41, 7-{4-[4-(Dimethylamino)piperidin-1-yl]phenylamino}-1-isopropyl-pyrimido[4,5-d]pyrimidin-2(1H)-one]					> 50 µM	11.7 µM	3060 nM	> 40 µM	14.8 µM	> 40 µM		
CCN(CC)CCCCNc1ncc2c(n1)N(CC)C(=O)N(c1cc(OC)cc(OC)c1)C2 [Example 53, 7-(4-Diethylamino-butylamino)-3-(3,5-dimethoxy-phenyl)-1-ethyl-3,4-dihydro-pyrimido[4,5-d]pyrimidin-2(1H)-one]					5 µM	0.06 µM					192 nM	
O=c1ncc2cnc(Nc3ccc(N4CCCC(O)C4)cc3)nc2n1C1CCCC1 (stereo not drawn) [Example 35, 1-Cyclopentyl-7-[4-(3-hydroxypiperidin-1-yl)phenylamino]pyrimido[4,5-d]-pyrimidin-2(1H)-one]					2.8 µM	3.49 µM	4650 nM	1.05 µM	0.99 µM	8.54 µM		0.082 µM

Second part, led by results:

IC50 (cdk4/D; [4])	IC50 (cdk2/cyclinE; [5])	IC50 (cdk2/cyclinA; [6])	IC50 (cdc2/cyclinB; [7])	IC50 [1]	IC50 [2]	SMILES	IC50 (c-Src)	IC50 (cdk2/cyclinE)	IC50 (cdk2/cyclinA)	IC50 (cdc2/cyclinB)	IC50 [3]	IC50 (cdk4/D)
0.039 µM	2.12 µM	0.76 µM	11.6 µM	0.175 µM	0.023 µM	CN1CCN(c2ccc(Nc3ncc4c(n3)N(C3CCCC3)C(=O)NC4)cc2)CC1 [Example 11, 1-Cyclopentyl-7-[4-(4-methylpiperazin-1-yl)phenylamino]-3,4-dihydropyrimido[4,5-d]pyrimidin-2(1H)-one]	710 nM					
0.05 µM	1.38 µM	0.83 µM	7.51 µM	1.63 µM	0.37 µM	CN1CCN(c2ccc(Nc3ncc4cnc(=O)n(C5CCCC5)c4n3)cc2)CC1 [Example 32, 1-Cyclopentyl-7-[4-(4-methylpiperazin-1-yl)phenylamino]pyrimido-[4,5-d]pyrimidin-2(1H)-one]	3950 nM					
